Conditions: PEG-stabilized DSPC/Chol/PEG(2000)-DSPE liposome formulation (40 mg/ml total lipid, 12 mg/ml WSA1); buffer and serum; 48h incubation at 37° C.
Method: The liposomes are loaded by use of citric acid pH-gradient. Liposomes are prepared in 500 mM citrate buffer with pH 4.0 The external medium is titrated to pH 7.7 with sodium carbonate. WSA is thereafter added and allowed to load for 20 minutes at 60° C. The final formulation contains 40 mg/ml of total lipid and 12 mg/ml of WSA1 which corresponds to about 1×10^5 WSA, or 1×10^6 10 B, per liposome.

1,8-diamino-4-N-3- [12-(N-9-acridinyl-3-aminopropyl)-p-carborane-1-yl] propyl-4-azooctane hydrogen chloride [WSA1]
encapsulated WSA 1 released: less than 15%

Reference: US6562316B1, “Drug delivery system with two-step targeting” (priority 1997, dated 2003)
